A short description of data set [1]: LC-MS/MS lipid profiling in mouse models of chemotherapy-induced peripheral neuropathic pain. The settings on record: for concentrations of 9,10-EpOME: various pain relevant tissues and plasma following paclitaxel (6 mg/kg i.p.) or oxaliplatin (3 mg/kg i.p.) treatment, measurable as early as 24 hours after injection; for concentrations of 9-HODE / concentrations of 13-HODE: various pain relevant tissues and plasma following paclitaxel or oxaliplatin treatment.
Method: For all behavioral experiments, only 6-12 weeks old male C57BL/6N mice were used and purchased from commercial breeding companies (Charles River, Sulzfeld, Germany, Janvier, Le Geneset-Saint-Isle, FR). To compare mechanical thresholds, age and sex matched littermates were used as control.
Paclitaxel was dissolved in Cremophor EL/Ethanol 1:1 and diluted in saline. The dose for intraperitoneal injection was set to 6 mg/kg as described previously [4]. Oxaliplatin was dissolved in saline. The dose for intraperitoneal injection was set to 3 mg/kg as described previously [5].
For the measurement of epoxy lipids and HETEs stock solutions of the analytes 9,10-EpOME, 9-HODE, 13-HODE, 12-HETE and 15-HETE and internal standards 9,10-EpOME-d4, 9-HODE-d4, 13-HODE-d4, 12-HETE-d4 and 15-HETE-d4 are generated with concentrations of 2500 ng/ml in ethanol. Working standards were obtained by further dilution with a concentration range of 0.1-250 ng/ml for all analytes.
For prostanoids, stock solutions with 50,000 ng/ml of all analytes (6-keto-PGF1α) and internal standards (6-keto-PGF1α-d4) were prepared in methanol.
Lipids are extracted twice with 600 μl of ethyl acetate using liquid-liquid extraction. The combined organic phases were removed at a temperature of 45° C. under a gentle stream of nitrogen. The residues were reconstituted with 50 μl of methanol/water/butylated hydroxytoluene (BHT) (50:50:10^−3, v/v/v) (EpOMEs, HODEs and HETEs), or 50 μl of acetonitrile/water/formic acid (20:80:0.0025, v/v/v) (6-keto-PGF1α) and then centrifuged for 2 min at 10,000 g, and transferred to glass vials waiting for analysis.
The LC-MS/MS system consists of a QTrap 5500 (AB Sciex, Darmstadt, Germany) equipped with a Turbo-V source operating in negative electrospray ionization mode, an Agilent 1200 binary HPLC pump and degasser (Agilent, Waldbronn, Germany), and an HTC Pal autosampler (CTC analytics, Zwingen, Switzerland). High-purity nitrogen for the mass spectrometer was produced by a NGM 22-LC-MS nitrogen generator (cmc Instruments, Eschborn, Germany).
For the chromatographic separation of EpOMEs, HODEs and HETEs, a Gemini NX C18 column and precolumn were used (150×2 mm inner diameter, 5 μm particle size, and 110 Å pore size; Phenomenex, Aschaffenburg, Germany). For the chromatographic separation of prostanoids, a Synergi 4 u Hydro-RP column (150×2 mm inner diameter, 4 μm, Phenomenex, Aschaffenburg, Germany) and a precolumn of same material were used.
Mobile phase A consist of water: ammonia (100:0.05, v/v), and mobile phase B of acetonitrile ammonia (100:0.05, v/v). The gradient changed from 85% A to 10% within 12 min. These conditions were held for 1 min.
For the chromatographic separation of prostanoids, a Synergi 4 u Hydro-RP column (150×2 mm inner diameter, 4 μm, Phenomenex, Aschaffenburg, Germany) and a precolumn of same material were used.

A short description of data set [2]: Plasma concentrations of 9,10-EpOME and 9,10-DiHOME after paclitaxel treatment, with telmisartan administration. The settings on record: 8 d after paclitaxel-treatment (6 mg/kg); telmisartan 10 mg/kg, 2 h. In kind it is in vivo, mice. As to the method: FIG. 4: Plasma-concentrations of 9,10-EpoME and its Metabolite 9,10-DiHOME 8d after paclitaxel-treatment (6 mg/kg) can be reduced by administration of telmisartan (10 mg/kg, 2h). Data are shown as mean±SEM from five mice per group; one-way ANOVA, *p<0.05.
Oxaliplatin was dissolved in saline.
These conditions were held for 1 min.
Ratios of analyte peak area and internal standard area.

[3] abbreviates: pain relevant tissues, FIG. 2: 8 d after i.p. paclitaxel (6 mg/kg).

This note sets out measurements from patent US20200200775A1, “OXIDIZED LIPIDS AS BIOMARKERS FOR NEUROPATHIC PAIN” (Fraunhofer-Gesellschaft zur Förderung der angewandten …, priority 2017, published 2020).

Molecules are shown by their SMILES.

Turning to `CC(=O)O[C@H]1C(=O)[C@@]2(C)[C@H]([C@H](OC(=O)c3ccccc3)[C@]3(O)C[C@H](OC(=O)[C@H](O)[C@@H](NC(=O)c4ccccc4)c4ccccc4)C(C)=C1C3(C)C)[C@]1(OC(C)=O)CO[C@@H]1C[C@@H]2O` [paclitaxel], in data set [1] (setting [3]), the “concentrations of 12-HETE” value is “decreased” and the “concentrations of 15-HETE” value was “decreased”. In addition, in data set [1] (pain relevant tissues, FIG. 2: 8 d after multiple i.p. paclitaxel (4×2 mg/kg, every other day)), the “concentrations of 6-keto-Prostaglandin-F1α” value is on record as “decreased”. Moreover, in data set [1], the “concentrations of 9,10-EpOME” value was “elevated”, the “concentrations of 9-HODE” value is reported as “elevated” and the “concentrations of 13-HODE” value is recorded as “elevated”.
Take `CCCc1nc2c(C)cc(-c3nc4ccccc4n3C)cc2n1Cc1ccc(-c2ccccc2C(=O)O)cc1` [telmisartan]: in data set [2], the “Plasma-concentrations of 9,10-DiHOME” value is reported as “reduced” and the “Plasma-concentrations of 9,10-EpOME” value is on record as “reduced”.
In the case of `O=C1[O][Pt]2([NH][C@@H]3CCCC[C@H]3[NH]2)[O]C1=O` [oxaliplatin], in data set [1], the “concentrations of 9,10-EpOME” value is “elevated”, the “concentrations of 9-HODE” value is given as “elevated” and the “concentrations of 13-HODE” value is given as “elevated”.
